Assays:
[1] = system: day 3 LA-Mφ (human macrophages under lactic acidosis); assay: Survival of LA-Mφ with autophagy inhibitors; type: cell-based; conditions: added to day 3 LA-Mφ; data not shown
Experimental: (§1) Peripheral blood mononuclear cells (PBMC) were obtained from healthy human volunteers (Blood collection center, Angers, France; agreement ANG-2017-01) by standard density-gradient centrifugation on lymphocyte separation medium (Eurobio, Courtaboeuf, France). CD14+ monocytes were then isolated by positive magnetic cell-sorting (Miltenyi Biotec, Bergisch Gladbach, Germany). Monocytes (1×10^6 cells/mL) were cultured in complete medium (CM) consisting of RPMI 1640 (Lonza, Verviers, Belgium) supplemented with 10% fetal calf serum (FCS) (Eurobio), 2 mM L-glutamine, 1 mM sodium pyruvate, 0.1 mM non-essential amino acids, 10 mM HEPES, 100 U/mL penicillin and 100 μg/mL streptomycin (all from Lonza) in the presence of 50 ng/mL GM-CSF (R&D Systems, Minneapolis, MN).
(§2) Experiments were performed in the presence of 10 mM lactic acid (Sigma-Aldrich, St Louis, MO) resulting in a pHe of 6.5 to generate LA-Mφ (lactic acidosis conditioning), 12.35 mM HCl to reach a final pHe of 6.5 and to generate HCl-Mφ(acidosis conditioning), 10 mM sodium lactate (Sigma-Aldrich) to generate lactate-Mφ (lactosis conditioning, pH 7.3), in the absence or presence of 5 mM lithium acetoacetate (AcAc) (Sigma-Aldrich, St Louis, MO).

[2] = system: Mφ (human monocytes cultured with GM-CSF); assay: Toxicity of lactic acid for macrophages; type: cell-based; conditions: pH=6.5; data not shown
Experimental: as §1, §2

Structure (SMILES)	survival of LA-Mφ [1]	maximum non-toxic concentration for Mφ [2] [mM]
CC[C@@H](C(=O)[C@@H](C)[C@@H](O)[C@H](C)[C@@H]1O[C@@H]([C@@H](CC)C(=O)O)CC[C@@H]1C)[C@H]1O[C@]2(C=C[C@@H](O)[C@]3(CC[C@@](C)([C@H]4CC[C@](O)(CC)[C@H](C)O4)O3)O2)[C@H](C)C[C@@H]1C [salinomycin]	significantly decreased their survival	
CO/C1=C\C(C)=C\[C@@H](C)[C@@H](O)[C@@H](C)C/C(C)=C/C=C/[C@H](OC)[C@@H]([C@@H](C)[C@@H](O)[C@H](C)[C@@]2(O)C[C@@H](O)[C@H](C)[C@@H](C(C)C)O2)OC1=O [BafA1, bafilomycin A1]	significantly decreased their survival	
CC(O)C(=O)O (stereo not drawn) [LA, lactic acid]		10
